Test results taken from ChEMBL document CHEMBL5360621, “Discovery and Optimization of a STING Agonist Platform for Application in Antibody Drug Conjugates” (J Med Chem, 2023).

Biological target: Stimulator of interferon genes protein (Homo sapiens, UniProt Q86WV6)
Assay: Agonist activity at STING in digitonin-permeabilized human THP1-Dual cells expressing NF-kappaB-SEAP and IRF-Lucia luciferase reporter assessed as increase in IRF-luciferase activation incubated for 24 hrs by QUANTI-Luc assay
Type: cell-based

Chain of Stimulator of interferon genes protein (Q86WV6 whole entry): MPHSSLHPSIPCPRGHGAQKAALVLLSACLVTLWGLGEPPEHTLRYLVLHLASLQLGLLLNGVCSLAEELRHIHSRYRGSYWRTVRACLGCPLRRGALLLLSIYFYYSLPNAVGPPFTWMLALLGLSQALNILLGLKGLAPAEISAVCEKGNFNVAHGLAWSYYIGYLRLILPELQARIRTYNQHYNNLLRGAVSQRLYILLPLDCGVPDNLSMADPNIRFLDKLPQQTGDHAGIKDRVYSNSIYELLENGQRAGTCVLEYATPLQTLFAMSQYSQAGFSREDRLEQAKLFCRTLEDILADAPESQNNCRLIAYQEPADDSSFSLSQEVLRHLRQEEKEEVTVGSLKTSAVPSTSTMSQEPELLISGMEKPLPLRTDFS

CCn1nc(C)cc1C(=O)Nc1nc2cc(C(N)=O)cc(OC)c2n1C/C=C/Cn1c(NC(=O)c2cc(C)nn2CC)nc2cc(C(N)=O)cc(OCCCN)c21 was tested. Which EC50 did it give?
Its EC50 is 10 nM.

With CCn1nc(C)cc1C(=O)/N=c1\sc2cc(C(N)=O)cc(OC)c2n1C/C=C/Cn1c(NC(=O)c2cc(C)nn2CC)nc2cc(C(N)=O)cc(OCCCO)c21 as the compound, how does the EC50 read?
The EC50 was 5 nM.

How did the EC50 turn out when CCc1nc(C)oc1C(=O)Nc1nc2cc(C(N)=O)cc(OC)c2n1C/C=C/Cn1c(NC(=O)c2cc(C)nn2CC)nc2cc(C(N)=O)cc(OCCCO)c21 was run?
The EC50 was 9 nM.

With CCc1nc(C)oc1C(=O)Nc1nc2cc(C(N)=O)cc(OCCCO)c2n1C/C=C/Cn1/c(=N/C(=O)c2cc(C)nn2CC)sc2cc(C(N)=O)cc(OC)c21 as the compound, how does the EC50 read?
The EC50 was 20 nM.

How did the EC50 turn out when CCc1nc(C)oc1C(=O)Nc1nc2cc(C(N)=O)cnc2n1C/C=C/Cn1c(NC(=O)c2oc(C)nc2CC)nc2cc(C(N)=O)cc(OCCCO)c21 was run?
The EC50 was 7 nM.

Which EC50 does the source give for CCc1nc(C)oc1C(=O)/N=c1\sc2cc(C(N)=O)cnc2n1C/C=C/Cn1c(NC(=O)c2oc(C)nc2CC)nc2cc(C(N)=O)cc(OCCCO)c21 here?
Its EC50 is 90 nM.

COc1cc(C(N)=O)cc2nc(NC(=O)c3cnc(C)n3C)n(C/C=C/Cn3c(NC(=O)c4cnc(C)n4C)nc4cc(C(N)=O)cc(OCCCO)c43)c12 was tested. Which EC50 did it give?
The EC50 was > 100000 nM.

With CCc1nn(C)cc1C(=O)Nc1nc2cc(C(N)=O)cc(OC)c2n1C/C=C/Cn1c(NC(=O)c2cn(C)nc2CC)nc2cc(C(N)=O)cc(OCCCO)c21 as the compound, how does the EC50 read?
The EC50 was 5000 nM.

CCn1nc(C)cc1C(=O)Nc1nc2cc(C(N)=O)cnc2n1C/C=C/Cn1c(NC(=O)c2cc(C)nn2CC)nc2cc(C(N)=O)cc(OCCCO)c21 was tested. Which EC50 did it give?
Its EC50 is 60 nM.

For CCc1nc(C)oc1C(=O)Nc1nc2cc(C(N)=O)cc(OC)c2n1C/C=C/Cn1c(NC(=O)c2oc(C)nc2CC)nc2cc(C(N)=O)cc(OCCCO)c21, which EC50 is on record?
The EC50 was 1 nM.

With CCc1nc(C)oc1C(=O)/N=c1\sc2cc(C(N)=O)cc(OCCCO)c2n1C/C=C/Cn1c(NC(=O)c2oc(C)nc2CC)nc2cc(C(N)=O)cnc21 as the compound, how does the EC50 read?
Its EC50 is 150 nM.

Which EC50 does the source give for COc1cc(C(N)=O)cc2nc(NC(=O)c3cnc(C)o3)n(C/C=C/Cn3c(NC(=O)c4cnc(C)o4)nc4cc(C(N)=O)cc(OCCCO)c43)c12 here?
The EC50 was > 100000 nM.

How did the EC50 turn out when CCc1nc(C)sc1C(=O)Nc1nc2cc(C(N)=O)cc(OC)c2n1C/C=C/Cn1c(NC(=O)c2sc(C)nc2CC)nc2cc(C(N)=O)cc(OCCCO)c21 was run?
Its EC50 is 270 nM.

With COc1cc(C(N)=O)cc2nc(NC(=O)c3nc(C)oc3C)n(C/C=C/Cn3c(NC(=O)c4nc(C)oc4C)nc4cc(C(N)=O)cc(OCCCO)c43)c12 as the compound, how does the EC50 read?
The EC50 was > 100000 nM.

CCc1nc(C)oc1C(=O)Nc1nc2cc(C(N)=O)cc(OCCCO)c2n1C/C=C/Cn1c(NC(=O)c2cc(C)nn2CC)nc2cc(C(N)=O)cnc21 was tested. Which EC50 did it give?
Its EC50 is 4 nM.

Which EC50 does the source give for CCc1nc(C)oc1C(=O)/N=c1\sc2cc(C(N)=O)cc(OC)c2n1C/C=C/Cn1c(NC(=O)c2oc(C)nc2CC)nc2cc(C(N)=O)cc(OCCCO)c21 here?
Its EC50 is 60 nM.

How did the EC50 turn out when CCn1nc(C)cc1C(=O)Nc1nc2cc(C(N)=O)cc(OC)c2n1C/C=C/Cn1c(NC(=O)c2cc(C)nn2CC)nc2cc(C(N)=O)cc(OCCCO)c21 was run?
The EC50 was 1 nM.

For CCc1nc(C)sc1C(=O)Nc1nc2cc(C(N)=O)cc(OCCCO)c2n1C/C=C/Cn1c(NC(=O)c2cc(C)nn2CC)nc2cc(C(N)=O)cc(OC)c21, which EC50 is on record?
The EC50 was 20 nM.

CCc1ncoc1C(=O)/N=c1\sc2cc(C(N)=O)cc(OC)c2n1C/C=C/Cn1c(NC(=O)c2ocnc2CC)nc2cc(C(N)=O)cc(OCCCO)c21 was tested. Which EC50 did it give?
Its EC50 is > 100000 nM.

CCc1nn(C)cc1C(=O)Nc1nc2cc(C(N)=O)cc(OCCCO)c2n1C/C=C/Cn1c(NC(=O)c2cc(C)nn2CC)nc2cc(C(N)=O)cc(OC)c21 was tested. Which EC50 did it give?
The EC50 was 20 nM.

How did the EC50 turn out when CCn1nc(C)cc1C(=O)Nc1nc2cc(C(N)=O)cc(OC)c2n1C/C=C/Cn1c(NC(=O)c2cc(C)nn2CC)nc2cc(C(N)=O)cc(OCCCC(=O)O)c21 was run?
Its EC50 is 18 nM.

CCn1nc(C)cc1C(=O)/N=c1\sc2cc(C(N)=O)cc(OC)c2n1C/C=C/Cn1c(NC(=O)c2oc(C)nc2C)nc2cc(C(N)=O)cc(OCCCO)c21 was tested. Which EC50 did it give?
The EC50 was > 100000 nM.

With CCc1nc(C)oc1C(=O)Nc1nc2cc(C(N)=O)cc(OC)c2n1C/C=C/Cn1c(NC(=O)c2cnc(C)o2)nc2cc(C(N)=O)cc(OCCCO)c21 as the compound, how does the EC50 read?
The EC50 was > 100000 nM.

How did the EC50 turn out when CCn1nc(C)cc1C(=O)Nc1nc2cc(C(N)=O)cnc2n1C/C=C/Cn1c(NC(=O)c2oc(C)nc2C)nc2cc(C(N)=O)cc(OCCCO)c21 was run?
The EC50 was 3200 nM.

CCc1nc(C)oc1C(=O)Nc1nc2cc(C(N)=O)cc(OCCCO)c2n1C/C=C/Cn1c(NC(=O)c2cc(C)nn2CC)nc2cc(C(N)=O)cc(OC)c21 was tested. Which EC50 did it give?
The EC50 was 1 nM.
